How the values were obtained:
MDAMB231 = assay: In vitro antiproliferative assay (MTT assay), breast cancer cell line; format: cell-based; details: Homo sapiens, MDA-MB-231, 48 h, MTT assay, breast cancer MDAMB231, 48 hrs drug incubation
Summary of the method: (§1)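 Cells plated, grown 24 h at 37 °C/5% CO2, then exposed to compounds (from 0.1 M DMSO stock) for 48 h. Viability read by MTT (0.5 mg/ml, 4 h) with DMSO solubilization; log % viability plotted against log concentration.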

PC3 = assay: In vitro antiproliferative assay (MTT assay), prostate cancer cell line; format: cell-based; details: Homo sapiens, PC-3, 48 h, MTT assay, prostate cancer PC3, 48 hrs drug incubation
Summary of the method: as §1

Row | Compound | IC50 (MDAMB231) [µM] | IC50 (PC3) [µM]
1 | COc1ccc(NC2=CC(=O)c3c(OCCN4CCOCC4)cccc3C2=O)cc1OC [Formula 40, 5-(2-morpholinoethoxy)-2-(3,4-dimethoxyphenylamino) naphthalene-1,4-dione] | 0.951 | 1.68
2 | O=C1C(NC2CCCCC2)=CC(=O)c2c(OCCN3CCOCC3)cccc21 [Formula 52] | 3.13 | 4.32
3 | O=C1C(c2ccc3c(c2)OCO3)=CC(=O)c2c(OCCCCN3CCOCC3)cccc21 [Formula 2, 5-(4-morpholinobutoxy)-2-(benzo[d][1,3]dioxol-6-yl)naphthalene-1,4-dione] | 0.566 | 0.344

Reference: US20240018132A1, “5-HYDROXY-1,4-NAPHTHALENEDIONE FOR USE IN THE TREATMENT OF CANCER” (GODAVARI BIOREFINERIES LIMITED, priority 2020, published 2024)
